What was measured:
[1] = test system: PBMC or CD34+ cells from healthy donors; assay: CFU assay, healthy controls; format: cell-based, human
Method: (§1) With the aid of the CFU assay, it is possible to determine the colony-forming capacity of individual cells in a semisolid methylcellulose medium (MethoCult H4434, StemCell Technologies, Cologne, Germany). The number of colonies was determined after 7-11 days.
CD34+ cells (G-CSF mobilized from stem cell donors) from healthy donors: 2×10^4 cells/ml; PBMCs from the healthy subjects: 4×10^5 cells/ml.
For this purpose, mononuclear cells (PBMC: mononuclear cells from peripheral blood) or CD34-positive stem cells (CD34+ cells) were isolated from the blood of four healthy controls and three AML or MPN patients and introduced into semisolid medium, to each of which 1 μM or 5 μM of MFS-2 or PFI-1 have been added. Individual cells in the CFU assay form cell colonies in culture after 12 days, unless the formation thereof is prevented by inhibitors.

HEL cells [2] = assay: Viability from trypan blue staining, HEL; format: cell-based; conditions: 5 μM, compared to PFI-1
Method: Cell count and viability was determined after trypan blue staining. The appropriate concentrations of the inhibitors per ml of medium were added, or the correspondingly highest volume of DMSO was added as control group.
During the study of cell proliferation, the viability of the cell lines was likewise determined from the trypan blue staining. Trypan blue cannot penetrate into living cells.

Molm-14 cells = assay: Cell cycle analysis (propidium iodide, flow cytometry), Molm-14; format: cell-based; conditions: compared to PFI-1
Method: (§2) The influence of the inhibitors used on the cell cycle was examined by means of propidium iodide staining of the fixed cells. For this purpose, the cells were fixed with 95% ethanol at −20° C., RNA was destroyed by RNase (100 μg/ml) at 37° C. for […], and the DNA was stained by means of propidium iodide (50 μg/ml). Using a flow cytometer (Gallios (Beckman Coulter, Krefeld, Germany)), the cell cycle phases were analysed, and the data were evaluated by means of FlowJo Software (Version 10).
(§3) During the proliferation, the cells go through different stages of the cell cycle in which genomic DNA is replicated, the cell nucleus is broken down and cell division takes place, resulting in two identical cells.

[3] = test system: mononuclear cells from MPN patients (JAK2V617F-positive); assay: CFU assay, MPN patients (PV, PMF, ET); format: cell-based, human
Method: as §1
PBMCs from PV, ET or PMF patients: 4×10^5 cells/ml
Individual cells in the CFU assay form cell colonies in culture after 12 days, unless the formation thereof is prevented by inhibitors.
Myeloproliferative neoplasia includes three conventional Philadelphia chromosome-negative (BCR-ABL-negative) disease entities: polycythemia vera (PV), essential thrombocythaemia (ET) and primary myelofibrosis (PMF). Both PV and ET can progress to become myelofibrosis (MF), which usually means a fatal deterioration in the disease state and in the success of treatment. All the MPN patients involved in these studies were JAK2V617F-positive.

AML cell line Molm-14 = assay: MTT assay, metabolic activity of Molm-14 cells; format: cell-based; conditions: 1 μM, 72 h, DMSO control set to 100%
Method: (§4) All studies with the HEL, Molm-14 and K562 cell lines mentioned (sourced from DSMZ: ACC-11, ACC-10 and ACC-777) were conducted under germ-free conditions under a sterile hood. Incubation was effected at 37° C. in an incubator at a CO2 saturation of 5%. For the passage of the suspension cells, the cells were transferred in a Falcon prefilled with PBS (phosphate buffered saline) and centrifuged at 1200 rpm for 5 min. All three cell lines were cultured in RPMI-1640 medium (Gibco, Thermo Fischer Scientific, Darmstadt, Germany) with 10% FCS and 1% penicillin streptomycin.
(§5) The viability and metabolic activity of the cells were measured by the MTT assay. Yellow, water-soluble MTT (3-([…])-2,5-diphenyltetrazolium bromide) is a tetrazolium salt which is reduced to dark blue formazan in living cells. Insoluble formazan is released by addition of isopropanol-HCl, and its intensity can be determined by photometry at a wavelength of 550 nm. Thus, the proportion of living cells is measured by comparison with a particular control sample. The cells were counted and washed with PBS, and 30 000 cells per well were sown in triplicates in a 96-well plate. For the inhibitor treatment, the stated final concentrations were used. For this purpose, 10 µl of the appropriate inhibitor dilution was introduced into the 96-well plates, and then 90 μl of cell suspension was pipetted in. The plates were incubated in an incubator for 72 h (37° C., 5% CO2). After the incubation, 10 μl of MTT solution (5 mg/ml) was applied to the wells with a multichannel pipette and thoroughly resuspended. This was followed by incubation for 4 h in the dark at room temperature. Subsequently, the cells were resuspended in 100 μl of isopropanol-HCl and lysed, and absorption at a wavelength of 550 nm was measured by photometry with a plate reader (Kayto, RT-2100C).
(§6) The erythroleukaemia cell line HEL (JAK2V617F-positive), the AML cell line Molm-14 and the chronic myeloid leukaemia (CML) cell line K562 (BCR-ABL-positive) were used for cell experiments.
(§7) Compounds MF1-R, MF1-S, JHS1-R and JHS1-S were dissolved in DMSO, and each was used in concentrations of 0.1 μM, 1 μM, 10 μM and 20 μM. Correspondingly, DMSO was included in each case as a control treatment, and the metabolic activity thereof was set to 100%. The HEL, Molm-14 and K562 cell lines were treated with the respective compounds in the different concentrations and, after 72 h in culture, the metabolic activity, which gives information about the growth of the cells, was determined by means of MTT [3-(4,5-dimethylthiazol-2-yl)-2,5-diphenyltetrazolium bromide] assay.

[4] = test system: erythroleukaemia cell line HEL (JAK2V617F-positive); assay: MTT assay, metabolic activity of HEL cells; format: cell-based; conditions: 1 μM, 72 h, DMSO control set to 100%
Method: as §4, §5, §6, §7

HEL cells [5] = assay: Cell cycle analysis (propidium iodide, flow cytometry), HEL; format: cell-based; conditions: compared to PFI-1
Method: as §2, §3

CN1Cc2cc(N=[S@@](C)(=O)c3ccccc3)ccc2NC1=O [MF2-S, (S)—N-(3-methyl-2-oxo-1,2,3,4-tetrahydroquinazolin-6-yl)-S-methyl-S-phenylsulfoximine]
colony count, healthy CD34+ controls 3 and 4 ([1]; 1 μM): reduced the colony count of the controls to a lesser degree | colony count, healthy control 4 ([1]; 1 μM): not significantly reduced | colony count, healthy controls 1 (PBMC) and 2 (CD34+ cells) ([1]; 5 μM): likewise reduced the amount of colonies | viability of HEL cells (HEL cells [2]): significantly reduced the viability | subG1 phase (percentage of dead cells), Molm-14 (Molm-14 cells): significantly higher proportions | synthesis phase (S phase) of cell cycle, Molm-14 (Molm-14 cells): more significantly inhibited by MF2-S than by PFI-1 | colony count, PMF patient ([3]; 1 μM): very efficiently reduced the colony count | colony count, MPN patients ([3]; 5 μM, compared to PFI-1): significantly greater reduction in each case in the colony count | metabolic activity of Molm-14 cells (AML cell line Molm-14): 55.19%±0.72 | metabolic activity of HEL cells [4]: 37.24%±6.19 | subG1 phase (percentage of dead cells), HEL (HEL cells [5]): significantly higher proportions | synthesis phase (S phase) of cell cycle, HEL (HEL cells [5]): more significantly inhibited by MF2-S than by PFI-1

From patent US12503446B2, “Bromodomain inhibitors” (FORSCHUNGSZENTRUM JÜLICH GMBH, priority 2019, dated 2025)
